Assay results: patent US8916183B2, “Pesticidal compositions and processes related thereto” (priority 2012, dated 2014)

Legend:
[1] = test system: Corn Earworm (CEW) (Helicoverpa zea); test: Bioassay on corn earworm (CEW), 128-well diet tray assay; assay type: in vivo; conditions: Helicoverpa zea; corn earworm, 50 μg/cm^2; read-out: % Mortality CEW 50 μg/cm^2
Protocol: (§1) Certain molecules disclosed in this document were tested against BAW and CEW using procedures described in the following examples. In the reporting of the results, the “BAW & CEW Rating Table” was used (See Table Section).
Bioassays on CEW (Helicoverpa zea)
Bioassays on CEW were conducted using a 128-well diet tray assay. […] Trays were covered with a clear self-adhesive cover and held at 25° C., 14:10 light-dark for five to seven days. Percent mortality was recorded for the larvae in each well; activity in the eight wells was then averaged. The results are indicated in the table entitled “Table 5: Biological Results” (See Table Section).

[2] = test system: Beet Armyworm (BAW) (Spodoptera exigua); test: Bioassay on beet armyworm (BAW), 128-well diet tray assay; assay type: in vivo; conditions: Spodoptera exigua; beet armyworm, 50 μg/cm^2; read-out: % Mortality BAW 50 μg/cm^2
Protocol: as §1
Bioassays on BAW (Spodoptera exigua)
Bioassays on BAW were conducted using a 128-well diet tray assay. […] Trays were covered with a clear self-adhesive cover and held at 25° C., 14:10 light-dark for five to seven days. Percent mortality was recorded for the larvae in each well; activity in the eight wells was then averaged. The results are indicated in the table entitled “Table 5: Biological Results” (See Table Section).

Compound	mortality at 50 µg/cm2 [1]	mortality at 50 µg/cm2 [2]
Cc1cc(Cl)cc(C)c1N1C(=O)CS/C1=N\N=C\c1ccc(-c2ncn(-c3ccc(OC(F)(F)F)cc3)n2)cc1 [Compound 105C]	50 to 100%	50 to 100%
O=C1CCS/C(=N\N=C\c2ccc(-c3ncn(-c4ccc(OC(F)(F)F)cc4)n3)cc2)N1c1c(F)cccc1F [Compound 226C]	50 to 100%	50 to 100%
CC(F)(F)Oc1ccccc1N1C(=O)CCS/C1=N\N=C\c1ccc(-c2ncn(-c3ccc(OC(F)(F)F)cc3)n2)cc1 [Compound 229C]	50 to 100%	50 to 100%
O=C1CS/C(=N\N=C\c2ccc(-c3ncn(-c4ccc(OC(F)(F)F)cc4)n3)cc2)N1c1ccccc1OC(F)(F)F [Compound 124C]	50 to 100%	50 to 100%
COc1cc(C)c(/N=C(/N/N=C/c2ccc(-c3ncn(-c4ccc(OC(F)(F)F)cc4)n3)cc2)SCC(=O)O)c(C)c1 [Compound 48C]	50 to 100%	50 to 100%
CC1S/C(=N\N=C\c2ccc(-c3ncn(-c4ccc(OC(F)(F)F)cc4)n3)cc2)N(c2c(F)cccc2Cl)C1=O (stereo not shown) [Compound 130C]	50 to 100%	50 to 100%
O=C1CCS/C(=N\N=C\c2ccc(-c3ncn(-c4ccc(OC(F)(F)F)cc4)n3)cc2)N1c1ccccc1OC(F)F [Compound 233C]	50 to 100%	50 to 100%
CCC1CS/C(=N\N=C\c2ccc(-c3ncn(-c4ccc(OC(F)(F)F)cc4)n3)cc2)N1c1ccccc1C (stereo not shown) [Compound 166C]	50 to 100%	50 to 100%
CC(C)(C)c1ccccc1N1C(=O)CCS/C1=N\N=C\c1ccc(-c2ncn(-c3ccc(OC(F)(F)F)cc3)n2)cc1 [Compound 232C]	50 to 100%	50 to 100%
CC1S/C(=N\N=C\c2ccc(-c3ncn(-c4ccc(OC(F)(F)F)cc4)n3)cc2)N(c2ccccc2C2CC2)C1=O (stereo not shown) [Compound 127C]	50 to 100%	50 to 100%
CCOc1ccccc1N1C(=O)CS/C1=N\N=C\c1ccc(-c2ncn(-c3ccc(OC(F)(F)F)cc3)n2)cc1 [Compound 116C]	50 to 100%	50 to 100%
COc1ccc(N2C(=O)CS/C2=N\N=C\c2ccc(-c3ncn(-c4ccc(OC(F)(F)F)cc4)n3)cc2)cc1 [Compound 115C]	0%	0 to 50%
COC(=O)C1CC(c2ccc(/C=N/N=C3\SCC(=O)N3c3c(Cl)cccc3Cl)cc2)=NN1c1ccc(OC(F)(F)F)cc1 (stereo not shown) [Compound 109C]	50 to 100%	50 to 100%
CC1CS/C(=N\N=C\c2ccc(-c3ncn(-c4ccc(OC(F)(F)F)cc4)n3)cc2)N1c1c(F)cccc1F (stereo not shown) [Compound 159C]	50 to 100%	50 to 100%
Cc1cs/c(=N\N=C\c2ccc(-c3ncn(-c4ccc(OC(F)(F)F)cc4)n3)cc2)n1-c1ccccc1OC(F)(F)F [Compound 170C]	50 to 100%	50 to 100%
O=C1CS/C(=N\N=C\c2ccc(-c3ncn(-c4ccc(OC(F)(F)F)cc4)n3)cc2)N1c1ccccc1OC(F)F [Compound 126C]	50 to 100%	50 to 100%
CC1(O)CS/C(=N\N=C\c2ccc(-c3ncn(-c4ccc(OC(F)(F)F)cc4)n3)cc2)N1c1ccccc1C1CCCC1 (stereo not shown) [Compound 249C]	50 to 100%	50 to 100%
O=C1CCS/C(=N\N=C\c2ccc(-c3ncn(-c4ccc(OC(F)(F)F)cc4)n3)cc2)N1c1c(Cl)cccc1C(F)(F)F [Compound 228C]	50 to 100%	50 to 100%
CC1CS/C(=N\N=C\c2ccc(-c3ncn(-c4ccc(OC(F)(F)F)cc4)n3)cc2)N1c1ccccc1OC(F)F (stereo not shown) [Compound 164C]	50 to 100%	50 to 100%
CC(C)(C)c1ccccc1N1CCCS/C1=N\N=C\c1ccc(-c2ncn(-c3ccc(OC(F)(F)F)cc3)n2)cc1 [Compound 210C]	50 to 100%	50 to 100%
CCOC(=O)c1ccc(N2CCCS/C2=N\N=C\c2ccc(-c3ncn(-c4ccc(OC(F)(F)F)cc4)n3)cc2)cc1 [Compound 207C]	0%	0%
COc1cc(C)c(N2C(=O)CS/C2=N\N=C\c2ccc(-c3ncn(-c4ccc(OC(F)(F)F)cc4)n3)cc2)c(C)n1 [Compound 101C]	50 to 100%	50 to 100%
Cc1cccc(C)c1N1C(=O)CS/C1=N\N=C\c1ccc(-c2ncn(-c3ccc(OC(F)(F)C(F)(F)F)cc3)n2)cc1 [Compound 100C]	50 to 100%	50 to 100%
